Measured values as given in patent publication US20240197823A1, “CATIONIC ANTIMICROBIAL PEPTIDES AND USES THEREOF” (priority 2021, published 2024).
Values after ≈ are worked out from the molar mass of the structure shown. Where two headings read alike, the source gives them in different places. One block for each molecule: values may come before it. Positions of bridges follow the written chain, without caps; N, C: chain ends. Non-standard residues stand in square brackets, D forms with d. Residues, ends and D or L forms follow the SMILES beside them. *: point of attachment. Heptanoyl(5-Me) = CCC(C)CCCC(=O)*; Dab = NCC[C@H](N)C(=O)O

Key:
S. aureus = test: MIC growth inhibition assay in MHB2; assay type: cell-based, Staphylococcus aureus
Experimental: (§1) Bacteria. Bacterial clinical isolates, used for initial screening and in previous studies [Greber K E et al., 2017], were anonymously provided by the clinical microbiology laboratory of the University of Pittsburgh medical Center. The panel used for secondary screening was from CDC (Table 4), with resistance profiles data. Bacteria are stored in lock-secured −80° C. freezer and typically retrieved by obtaining single colonies on agar plates prior for subsequent liquid broth cultures. Suspensions of test bacteria were prepared from log phase of growth by diluting overnight cultures at 1:100 with fresh cation-adjusted MHB (MHB2, Millipore Sigma, USA) and incubating for additional 3-4 hours. Bacteria were spun at 3000×g for 10 minutes and the pellet resuspended in test condition media (Millipore Sigma, USA) to determine bacterial turbidity using a Den-1B densitometer (Grant Instruments, USA) at 0.5 McFarland (unit of bacterial density) corresponding to […].
(§2) Antibacterial assays. To examine antibacterial activity, this study used minor modifications of a standard growth inhibition assay endorsed by the Clinical and Laboratory Standards Institute (CLSI), as previously described [Greber K E et al., 2017]. Bacteria were incubated with each of the indicated peptides in MHB2. The bacterial cells were kept in an incubator for 18 hours at 37° C., which is linked to a robotic system that feeds a plate reader every hour with one of 8×96-well plates. This set-up allows the collection of growth kinetic data at A 570 (absorbance at 570 nm) to examine growth inhibition in real time (BioTek Instruments, USA). […] To assess bactericidal properties of the peptide, the assay was modified by using 15% fetal bovine serum (FBS, for a more physiologically relevant test condition) mixed with 25% MHB2 and 60% PBS. Bacterial cells (colony forming unit/mL or CFU/mL) were enumerated after incubating treated bacteria for 3 hours and plating serially diluted samples on broth agar medium at 37° C. overnight. […] For killing kinetics, we slightly modified the bactericidal assay to examine bacterial killing at the MBC (or 2×MBC) as a function of time for up to 3 hours. Data were analyzed using GraphPad Prism software.

E. Faecium = test: MIC growth inhibition assay in MHB2; assay type: cell-based, Enterococcus faecium
Experimental: as §1, §2

A. baumannii = test: microbe, parasite or virus in culture
Experimental: as §1, §2

E. coli = test: microbe, parasite or virus in culture
Experimental: as §1, §2

P. aeruginosa = test: microbe, parasite or virus in culture; settings: Pseudomonas aeruginosa, MHB2
Experimental: as §1, §2

Enterobacter spp = test: MIC growth inhibition assay in MHB2; assay type: cell-based, Enterobacter spp: EA (aerogenes), EC (cloacae)
Experimental: as §1, §2

K. pneumoniae = test: MIC growth inhibition assay in MHB2; assay type: cell-based, klebsiella pneumoniae
Experimental: as §1, §2

[1] = system: MDR panel of gram-negative (GNB) and -positive (GPB) bacterial isolates classified as ESKAPE pathogens
Experimental: as §1
Antibacterial assays. To examine antibacterial activity, this study used minor modifications of a standard growth inhibition assay endorsed by the Clinical and Laboratory Standards Institute (CLSI), as previously described [Greber K E et al., 2017]. Bacteria were incubated with each of the indicated peptides in MHB2. The bacterial cells were kept in an incubator for 18 hours at 37° C., which is linked to a robotic system that feeds a plate reader every hour with one of 8×96-well plates. This set-up allows the collection of growth kinetic data at A 570 (absorbance at 570 nm) to examine growth inhibition in real time (BioTek Instruments, USA). […] To assess bactericidal properties of the peptide, the assay was modified by using 15% fetal bovine serum (FBS, for a more physiologically relevant test condition) mixed with 25% MHB2 and 60% PBS. Bacterial cells (colony forming unit/mL or CFU/mL) were enumerated after incubating treated bacteria for 3 hours and plating serially diluted samples on broth agar medium at 37° C. overnight. […] Data were analyzed using GraphPad Prism software.

MIC (S. aureus; strain SA12212): 16 µM (≈ 7.27 µg/mL)
MIC (S. aureus; strain SA18710): 16 µM (≈ 7.27 µg/mL)
MIC (S. aureus; strain SA49775): 2 µM (≈ 0.909 µg/mL)
MIC (S. aureus; strain SA-US300): 8 µM (≈ 3.64 µg/mL)
MIC (E. Faecium; strain EF23614): >16 µM
MIC (E. Faecium; strain EF24670): >16 µM
MIC (E. Faecium; strain EF26215): 4 µM (≈ 1.82 µg/mL)
MIC (E. Faecium; strain EF26692): 4 µM (≈ 1.82 µg/mL)
SMILES: Cc1nnc(SCC2=C(C(=O)O)N3C(=O)[C@@H](NC(=O)Cn4cnnn4)[C@H]3SC2)s1 [Cefa]

MIC (A. baumannii; Acinetobacter baumannii, CDC AR isolate AB288 (colistin resistance not confirmed)): 1 µM (≈ 1.16 µg/mL)
MIC (A. baumannii; Acinetobacter baumannii, CDC AR isolate AB300 (colistin resistance not confirmed)): 1 µM (≈ 1.16 µg/mL)
MIC (A. baumannii; Acinetobacter baumannii, CDC AR isolate AB301 (colistin resistance not confirmed)): 1 µM (≈ 1.16 µg/mL)
MIC (A. baumannii; Acinetobacter baumannii, CDC AR isolate AB303 (colistin resistance not confirmed)): 0.5 µM (≈ 0.578 µg/mL)
MIC (A. baumannii; Acinetobacter baumannii, strain AB273, CDC, MHB2): 0.5 µM (≈ 0.578 µg/mL)
MIC (A. baumannii; Acinetobacter baumannii, strain AB274, CDC, MHB2): 0.25 µM (≈ 0.289 µg/mL)
MIC (A. baumannii; Acinetobacter baumannii, strain AB275 (first line r9), CDC, MHB2): 0.25 µM (≈ 0.289 µg/mL)
MIC (A. baumannii; Acinetobacter baumannii, strain AB275 (second line r10), CDC, MHB2): 0.5 µM (≈ 0.578 µg/mL)
MIC (E. coli; Escherichia coli, strain Eco541, CDC, MHB2): 1 µM (≈ 1.16 µg/mL)
MIC (E. coli; Escherichia coli, strain Eco543, CDC, MHB2): 8 µM (≈ 9.24 µg/mL)
MIC (E. coli; Escherichia coli, strain Eco546, CDC, MHB2): 0.25 µM (≈ 0.289 µg/mL)
MIC (E. coli; Escherichia coli, strain Eco549, CDC, MHB2): 1 µM (≈ 1.16 µg/mL)
MIC (P. aeruginosa; strain PA216, CDC): 1 µM (≈ 1.16 µg/mL)
MIC (P. aeruginosa; strain PA229, CDC): > 16 µM
MIC (P. aeruginosa; strain PA230, CDC): 1 µM (≈ 1.16 µg/mL)
MIC (P. aeruginosa; strain PA231, CDC): 1 µM (≈ 1.16 µg/mL)
MIC (Enterobacter spp; Enterobacter, strain EA62 (aerogenes), CDC, MHB2): 2 µM (≈ 2.31 µg/mL)
MIC (Enterobacter spp; Enterobacter, strain EA547 (aerogenes), CDC, MHB2): 0.25 µM (≈ 0.289 µg/mL)
MIC (Enterobacter spp; Enterobacter, strain EC544 (cloacae), CDC, MHB2): 4 µM (≈ 4.62 µg/mL)
MIC (Enterobacter spp; Enterobacter, strain EC545 (cloacae), CDC, MHB2): 2 µM (≈ 2.31 µg/mL)
MIC (K. pneumoniae; Klebsiella pneumoniae, colistin-resistant CDC AR isolate KP46, read-out: MIC): 4 µM (≈ 4.62 µg/mL)
MIC (K. pneumoniae; Klebsiella pneumoniae, colistin-resistant CDC AR isolate KP87, read-out: MIC): > 16 µM
MIC (K. pneumoniae; Klebsiella pneumoniae, colistin-resistant CDC AR isolate KP125, read-out: MIC): 8 µM (≈ 9.24 µg/mL)
MIC (K. pneumoniae; Klebsiella pneumoniae, colistin-resistant CDC AR isolate KP507, read-out: MIC): 16 µM (≈ 18.5 µg/mL)
MIC (K. pneumoniae; Klebsiella pneumoniae, colistin-resistant CDC AR isolate KP1010, read-out: MIC): 16 µM (≈ 18.5 µg/mL)
MIC (K. pneumoniae; Klebsiella pneumoniae, colistin-resistant CDC AR isolate KP1041, read-out: MIC): > 16 µM
MIC (K. pneumoniae; Klebsiella pneumoniae, colistin-resistant CDC AR isolate KP1045, read-out: MIC): > 16 µM
MIC (K. pneumoniae; Klebsiella pneumoniae, strain KP542, CDC, MHB2, read-out: MIC): > 16 µM
MIC (K. pneumoniae; Klebsiella pneumoniae, strain KP548, CDC, MHB2, read-out: MIC): 0.25 µM (≈ 0.289 µg/mL)
MIC (K. pneumoniae; Klebsiella pneumoniae, strain KP550, CDC, MHB2, read-out: MIC): 0.25 µM (≈ 0.289 µg/mL)
MIC (K. pneumoniae; Klebsiella pneumoniae, strain KP552, CDC, MHB2, read-out: MIC): 0.25 µM (≈ 0.289 µg/mL)
MIC (K. pneumoniae; strain KPA5, initial MDR panel (Table 5)): colistin-resistant phenotype
MIC (S. aureus; Staphylococcus aureus, strain SA461, CDC, MHB2): > 16 µM
MIC (S. aureus; strain SA462, CDC, MHB2): >16 µM
MIC (S. aureus; strain SA463, CDC, MHB2): >16 µM
MIC (S. aureus; strain SA561, CDC, MHB2): >16 µM
MIC (E. Faecium; Enterococcus faecium, strain EF673, CDC, MHB2): > 16 µM
MIC (E. Faecium; strain EF500, CDC, MHB2): >16 µM
MIC (E. Faecium; strain EF671, CDC, MHB2): >16 µM
MIC (E. Faecium; strain EF672, CDC, MHB2): >16 µM
mean MIC ([1]; GNB and GPB of the initial MDR panel, MHB2): lowest mean MIC
SMILES: CCC(C)CCCC(=O)N[C@@H](CCN)C(=O)N[C@H](C(=O)N[C@@H](CCN)C(=O)N[C@H]1CCNC(=O)[C@H]([C@@H](C)O)NC(=O)[C@H](CCN)NC(=O)[C@H](CCN)NC(=O)[C@H](CC(C)C)NC(=O)[C@@H](CC(C)C)NC(=O)[C@H](CCN)NC1=O)[C@@H](C)O (stereo partly drawn) [Colistin, colistin, reference compound] ({Heptanoyl(5-Me)}-[Dab]T[Dab][Dab][Dab][dL]L[Dab][Dab]T; lactam 4-C)
activity against the GPB strains ([1]; GPB strains of the initial MDR panel (Table 5)): inactive

MIC (A. baumannii; strain AB-A2): 4 µM (≈ 1.53 µg/mL)
MIC (A. baumannii; strain AB-A3): >16 µM
MIC (A. baumannii; strain AB-F8): 8 µM (≈ 3.07 µg/mL)
MIC (A. baumannii; strain AB-F9): 8 µM (≈ 3.07 µg/mL)
MIC (E. coli; strain Eco25922): 0.5 µM (≈ 0.192 µg/mL)
MIC (E. coli; strain YDC107): 1 µM (≈ 0.383 µg/mL)
MIC (E. coli; strain YDC337): 8 µM (≈ 3.07 µg/mL)
MIC (E. coli; strain YDC748): 8 µM (≈ 3.07 µg/mL)
MIC (Enterobacter spp; strain EA518 (aerogenes)): >16 µM
MIC (Enterobacter spp; strain EA596 (aerogenes)): 16 µM (≈ 6.14 µg/mL)
MIC (Enterobacter spp; strain EC470 (cloacae)): >16 µM
MIC (Enterobacter spp; strain EC560 (cloacae)): 16 µM (≈ 6.14 µg/mL)
MIC (K. pneumoniae; strain KP43816, read-out: MIC): 1 µM (≈ 0.383 µg/mL)
MIC (K. pneumoniae; strain KPA5, read-out: MIC): 2 µM (≈ 0.767 µg/mL)
MIC (K. pneumoniae; strain KPB3, read-out: MIC): 2 µM (≈ 0.767 µg/mL)
MIC (K. pneumoniae; strain KPC3, read-out: MIC): 1 µM (≈ 0.383 µg/mL)
SMILES: C[C@@H](O)[C@H]1C(=O)N2C(C(=O)O)=C(S[C@@H]3CN[C@H](C(=O)N(C)C)C3)[C@H](C)[C@H]12 [Mero]
